Results published in patent US20100292233A1, “DIHYDRO-1H-PYRROLO[1,2-A]INDOL-1-YL CARBOXYLIC ACID DERIVATIVES WHICH ACT AS S1P1 AGONISTS” (ARENA PHARMACEUTICALS, INC., priority 2008, published 2010).
“Also recorded” adds a separate entry of the source. Each block holds one compound with its values, some of them ahead of it.

Assays:
S1P1 receptor = target: T1, S1P1 receptor (Homo sapiens, UniProt P21453); test: HTRF assay for direct cAMP measurement (S1P1 receptor agonism); assay type: cell-based; details: recombinant CHO-K1 cells stably transfected with S1P1 receptor; decrease of cAMP
T1 construct: expressed in transfected cells; host or cells: CHO-K1 (ATCC CCL-61)
T1 sequence (P21453 whole entry): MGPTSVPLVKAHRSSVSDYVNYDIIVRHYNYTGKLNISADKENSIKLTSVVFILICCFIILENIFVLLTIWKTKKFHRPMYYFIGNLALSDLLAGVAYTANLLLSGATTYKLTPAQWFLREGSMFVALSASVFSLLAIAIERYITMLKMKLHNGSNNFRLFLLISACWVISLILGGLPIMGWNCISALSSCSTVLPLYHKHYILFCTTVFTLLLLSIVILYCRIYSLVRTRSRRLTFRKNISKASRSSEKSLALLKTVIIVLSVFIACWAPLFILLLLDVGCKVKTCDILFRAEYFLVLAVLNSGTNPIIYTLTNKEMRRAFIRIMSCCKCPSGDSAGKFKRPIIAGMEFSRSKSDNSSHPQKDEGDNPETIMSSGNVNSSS
Source text: Compounds were screened for S1P1 receptor agonism (e.g., human S1P1 receptor) using the HTRF® assay for direct cAMP measurement (Gabriel et al, ASSAY and Drug Development Technologies, 1:291-303, 2003) and recombinant CHO-K1 cells stably transfected with S1P1 receptor. CHO-K1 cells were obtained from ATCC® (Manassas, Va.; Catalog #CCL-61). An agonist of the S1P1 receptor was detected in the HTRF® assay for direct cAMP measurement as a compound which decreased cAMP concentration. The HTRF® assay also was used to determine EC50 values for S1P1 receptor agonists.
Principle of the assay: The HTRF® assay kit was purchased from Cisbio-US, Inc. (Bedford, Mass.; Catalog #62AM4PEC). The HTRF® assay supported by the kit is a competitive immunoassay between endogenous cAMP produced by the CHO-K1 cells and tracer cAMP labeled with the dye d2. The tracer binding is visualized by a monoclonal anti-cAMP antibody labeled with Cryptate. The specific signal (i.e., fluorescence resonance energy transfer, FRET) is inversely proportional to the concentration of unlabeled cAMP in the standard or sample.
Standard curve: The fluorescence ratio (665 nm/620 nm) of the standards (0.17 to 712 nM cAMP) included in the assay was calculated and used to generate a cAMP standard curve according to the kit manufacturer's instructions. The fluorescence ratio of the samples (test compound or compound buffer) was calculated and used to deduce respective cAMP concentrations by reference to the cAMP standard curve.
Setup of the assay: The HTRF® assay was carried out using a two-step protocol essentially according to the kit manufacturer's instructions, in 20 μl total volume per well, 384-well plate format (ProxiPlates; PerkinElmer, Fremont, Calif.; catalog #6008280). To each of the experimental wells was transferred 1500 recombinant CHO-K1 cells in 5 μl phosphate buffered saline containing calcium chloride and magnesium chloride (“PBS+”; Invitrogen, Carlsbad, Calif.; catalog #14040) supplemented with IBMX (250 μM) and rolipram (20 μM) (phosphodiesterase inhibitors; Sigma-Aldrich, St. Louis, Mo.; catalog #I5879 and catalog #R6520, respectively), followed by test compound in 5 μl compound buffer (PBS+ supplemented with […] NKH477 (water-soluble forskolin derivative; SignaGen Laboratories, Gaithersburg, Md.; catalog #PKI-NKH477-010)) or 5 μl compound buffer. The plate was then incubated at room temperature for 1 hour. To each well was then added 5 μl cAMP-d2 conjugate in lysis buffer and 5 μl Cryptate conjugate in lysis buffer according to the kit manufacturer's instructions. The plate was then further incubated at room temperature for 1 hour, after which the assay plate was read.
Assay readout: HTRF® readout was accomplished using a PHERAstar (BMG LABTECH Inc., Durham, N.C.) or EnVision™ (PerkinElmer, Fremont, Calif.) microplate reader.

S1P3 receptor = target: T2, S1P3 receptor (Homo sapiens, UniProt Q99500); test: Cellular/functional Ca2+ assay for agonist activity on S1P3 receptor; assay type: cell-based; details: human neuroblastoma cells; FIG. 1; done by Caliper LifeSciences
T2 construct: a human neuroblastoma cell line which endogenously expresses S1P3 (predominantly), S1P2 and S1P5 receptors
T2 sequence (Q99500 whole entry): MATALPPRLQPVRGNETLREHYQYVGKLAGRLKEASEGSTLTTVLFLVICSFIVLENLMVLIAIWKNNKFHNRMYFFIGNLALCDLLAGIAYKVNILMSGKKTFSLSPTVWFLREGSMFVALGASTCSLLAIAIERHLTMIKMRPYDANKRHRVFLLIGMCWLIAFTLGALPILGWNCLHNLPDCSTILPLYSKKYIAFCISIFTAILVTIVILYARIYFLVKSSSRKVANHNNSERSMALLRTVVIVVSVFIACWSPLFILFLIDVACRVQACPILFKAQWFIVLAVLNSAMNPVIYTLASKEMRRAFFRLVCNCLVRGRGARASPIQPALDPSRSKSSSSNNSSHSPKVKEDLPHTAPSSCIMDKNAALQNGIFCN
Experimental: Of these, S1P3 and S1P2 receptors respond to agonists, such as S1P, with an intracellular calcium increase. […] Such an assay can be performed commercially, e.g. by Caliper LifeSciences (Hopkinton, Mass.).
Assay: Compound 2 (Enantiomer 1) was assayed for agonist activity on S1P3 receptor by Caliper LifeSciences. Human neuroblastoma cells were washed and resuspended in physiological buffer. The cells were then loaded with dye that measures intracellular calcium. S1P was used as a reference agonist. Compound 2 (Enantiomer 1) was included in the assay as a test compound. After addition of […] or Compound 2 (Enantiomer 1), fluorescence was measured at 485 nm excitation/525 nm emission every 2 sec for at least 60 sec. Calcium ionophore A23187 was then added as an internal positive control.

BALB/c mice = test: Mouse peripheral lymphocyte lowering (PLL) assay; assay type: in vivo; details: 1 mg/kg i.v., 5 hours post dose, FIG. 2
Experimental: Animals: Male BALB/c mice (6 to 7 weeks of age at start of study) (Charles River Laboratories, Wilmington, Mass.) were housed four per cage and maintained in a humidity—(40-60%) and temperature—(68-72° F.) controlled facility on a 12 hr:12 hr light/dark cycle (lights on at 6:30 am) with free access to food (Harlan Teklad, Orange, Calif., Rodent Diet 8604) and water. Mice were allowed one week of habituation to the animal facility before testing.
PLL Assay: Mice were administered via i.v. one of the following: vehicle (100% PEG400) or 1 mg/kg Compound 1 in vehicle, in a total volume of 5 mL/kg. Peripheral blood samples were collected at 5 hours post dose. The mice were anesthetized with isoflurane and bled retro-orbitally (300 μL) into 1.5 ml EDTA tubes. A complete […] (CBC) (including lymphocyte count) was obtained using CELL-DYN® 3700 (Abbott Laboratories, Abbott Park, Ill.). Results are presented in FIG. 2, in which the peripheral blood lymphocyte (PBL) count is shown for the 5 hour group.

[1] = attributed to agonism of the S1P3 receptor; cited from earlier work
[2] = system: patients with multiple sclerosis; details: Phase II, relapsing-remitting multiple sclerosis; cited from earlier work
[3] = short-term high dose; cited from earlier work
mice = details: oral administration to mice; cited from earlier work
C57BL/6 mice = details: prophylactic oral administration, 1 mg/kg, three times a week; cited from earlier work

EC50 (S1P1 receptor): 10 nM
SMILES: N#Cc1cc(OC(F)(F)F)cc(-c2nc(-c3ccc4c(c3)cc3n4CCC3CC(=O)O)no2)c1 (racemic) [Compound 2, 2-(7-(5-(3-Cyano-5-(trifluoromethoxy)phenyl)-1,2,4-oxadiazol-3-yl)-2,3-dihydro-1H-pyrrolo[1,2-a]indol-1-yl)acetic Acid]

SMILES: N#Cc1cc(OC(F)(F)F)cc(-c2nc(-c3ccc4c(c3)cc3n4CCC3CC(=O)O)no2)c1 (single isomer, unassigned) [Compound 2 (Enantiomer 1), 2-(7-(5-(3-Cyano-5-(trifluoromethoxy)phenyl)-1,2,4-oxadiazol-3-yl)-2,3-dihydro-1H-pyrrolo[1,2-a]indol-1-yl)acetic Acid]
agonist activity on S1P3 receptor (intracellular calcium) (S1P3 receptor): substantially little to no activity; also recorded: no or substantially no agonist activity

EC50 (S1P1 receptor): 7.2 nM
SMILES: O=C(O)CC1CCn2c1cc1cc(-c3noc(-c4cc(C(F)(F)F)cc(C(F)(F)F)c4)n3)ccc12 (stereo not shown) [Compound 1, 2-(7-(5-(3,5-Bis(trifluoromethyl)phenyl)-1,2,4-oxadiazol-3-yl)-2,3-dihydro-1H-pyrrolo[1,2-a]indol-1-yl)acetic Acid]
peripheral lymphocyte lowering (peripheral blood lymphocyte count vs vehicle) (BALB/c mice): exhibited activity for inducing peripheral lymphocyte lowering

EC50 (S1P1 receptor): 41 nM
SMILES: O=C(O)CC1CCn2c1cc1cc(-c3noc(-c4ccc5c(c4)OC(F)(F)O5)n3)ccc12 (stereo not shown) [Compound 8, 2-(7-(5-(2,2-Difluorobenzo[d][1,3]dioxol-5-yl)-1,2,4-oxadiazol-3-yl)-2,3-dihydro-1H-pyrrolo[1,2-a]indol-1-yl)acetic Acid]

EC50 (S1P1 receptor): 6.3 nM
SMILES: N#Cc1cc(-c2nc(-c3ccc4c(c3)cc3n4CCC3CC(=O)O)no2)ccc1OCC(F)(F)F (stereo not shown) [Compound 15, 2-(7-(5-(3-Cyano-4-(2,2,2-trifluoroethoxy)phenyl)-1,2,4-oxadiazol-3-yl)-2,3-dihydro-1H-pyrrolo[1,2-a]indol-1-yl)acetic Acid]

EC50 (S1P1 receptor): 13 nM
SMILES: O=C(O)CC1CCn2c1cc1cc(-c3noc(-c4cc(Br)cc(OC(F)(F)F)c4)n3)ccc12 (stereo not shown) [Compound 18, 2-(7-(5-(3-Bromo-5-(trifluoromethoxy)phenyl)-1,2,4-oxadiazol-3-yl)-2,3-dihydro-1H-pyrrolo[1,2-a]indol-1-yl)acetic Acid]

SMILES: CNc1ccc2oc(C[C@H]3O[C@@]4(CC[C@H]3C)O[C@H]([C@H](C)C(=O)c3ccc[nH]3)[C@H](C)C[C@H]4C)nc2c1C(=O)O [Compound A23187, reference compound]
agonist activity on S1P3 receptor (intracellular calcium) (S1P3 receptor): pronounced agonist activity

SMILES: CCCCCCCCc1ccc(CCC(N)(CO)CO)cc1 [FTY720]
adverse event in clinical trials [1]: transient asymptomatic bradycardia
MRI lesions and clinical disease activity [2]: reduce the number of lesions detected by magnetic resonance imaging (MRI) and clinical disease activity
ocular infiltrates [3]: rapidly reduced ocular infiltrates
VEGF-induced vascular permeability (mice): potently blocked VEGF-induced vascular permeability
development of EAMG (C57BL/6 mice): completely prevented the development of experimental autoimmune myasthenia gravis (EAMG)
